# Counter-ions that a name gives are not always drawn.
# Key:
# [1] = Sweetness match of monatin-sweetened chocolate milk to 10% sucrose target; assay type: in vivo
# Description: A chocolate milk composition sweetened with 42 DE high fructose corn syrup (HFCS) to about 10% sucrose was prepared by conventional methods common to one skilled in the art of flavored milk manufacturing to serve as a sweetness target. The amount of monatin in the five samples was about 25 ppm, about 30 ppm, about 35 ppm, about 40 ppm and about 45 ppm. Each of the five samples of monatin-sweetened milk were compared to the target milk sample containing 10% sucrose. The monatin-sweetened milk that most closely matched the sweetness of the target sucrose sample was chosen.
# panelists = experiment: Sensory panel sweetness matching against sucrose references (SEV) in milk and water media, Example 1; assay type: in vivo, human; settings: for sweetness enhancement of water/calcium solution over monatin in water alone: c. 120 mg calcium/100 ml as Gluconal CAL
# Description: (§1) As used herein, “sucrose equivalency value”, or SEV, is a measure of sweetness. The SEV is the concentration (% w/v) of a sucrose solution that gives a degree of sweetness that is perceived to be the same degree of sweetness as that of a test sample. For purposes of this disclosure, the SEV of an aqueous or dairy solution containing monatin is determined through comparison of the monatin-containing solution to a series of sucrose containing solutions prepared in the same medium (see Example 1).
# Monatin compositions were prepared by adding monatin to each of the solutions below at 20 ppm and 40 ppm. Sucrose reference compositions were also prepared. • Milk (0% fat) • Milk (0% fat) adjusted to pH 4.6 with lactic acid • Milk (2% fat) • Milk (3.6% fat) • Water • Water, adjusted to pH 4.6 with lactic acid • Water containing c. 120 mg calcium/100 ml (Ca^2+ added as Gluconal CAL® soluble salt) • Water containing 4.5% lactose • Water containing c. 120 mg calcium/100 mL plus 4.5% lactose • Water containing 3% milk protein isolate (Davisco BiPro)
# Panelists (8-10) were presented with a range (2-12%; w/v) of sucrose reference solutions prepared in each of the mediums listed above as well as two monatin test solutions at 20 ppm and 40 ppm prepared in the same manner. The panelists were instructed to taste the test sample and then to identify the reference sample that matched the perceived sweetness of the test sample. If the sweetness of the test sample was judged to fall between that of two references, panelists were asked to estimate sweetness to one decimal point. Panelists evaluated each sample in duplicate. All results for each test sample were averaged.
# [2] = Sweetness match of monatin-sweetened vanilla ice cream to 13% sucrose target; assay type: in vivo
# Description: A vanilla ice cream sweetened with about 13% sucrose was prepared by conventional methods common to one skilled in the art of ice cream manufacturing to serve as a sweetness target. Then a set of seven (7) ice cream samples were sweetened with R,R-monatin monopotassium salt using the ingredients listed in Table 13. The amount of monatin in the seven samples was about 35 ppm, about 40 ppm, about 45 ppm, about 50 ppm, about 55 ppm, about 60 ppm and about 70 ppm. Each of the seven samples of monatin-sweetened ice cream were compared to the target ice cream sample containing 13% sucrose. The monatin-sweetened ice cream that most closely matched the sweetness of the target sucrose sample was chosen.
# [3] = Sweetness of monatin stereoisomers relative to sucrose by weight (from SEV); assay type: in vivo; settings: general statement of the description; listed as R,R stereoisomer of monatin, mono potassium salt
# Description: as §1
# Monatin-containing compositions are described herein as being “X” times as sweet as sucrose. The various stereoisomers of monatin are also described as being “X” times sweeter than sucrose. These values are determined from the SEV of the compositions.
compound,measurement,setting,value
"NC(CC(O)(Cc1c[nH]c2ccccc12)C(=O)O)C(=O)O (stereo not drawn) [R,R-Monatin, 2R,4R-Monatin mono potassium salt]",monatin concentration that most closely matched the sweetness of milk sweetened to 10% sucrose,[1],about 35 ppm
same,times as sweet as sucrose,[1],about 2800 times
same,decrease in sweetness of water solution having 4.5% lactose compared to water solution only containing monatin,panelists; 20 ppm monatin,22%
same,sweetness enhancement of 0% fat milk at pH 4.6 over 0% fat milk at pH 6.4,panelists; 20 ppm monatin,13%
same,SEV,"panelists; 20 ppm monatin, Milk (0% fat), pH 6.4",5.3 %; w/v
same,SEV,"panelists; 20 ppm monatin, Milk (0% fat; yogurt + milk), pH 4.6",6.0 %; w/v
same,SEV,"panelists; 20 ppm monatin, Milk (2% fat), pH 6.4",5.6 %; w/v
same,SEV,"panelists; 20 ppm monatin, Milk (3.6% fat), pH 6.4",5.2 %; w/v
same,SEV,"panelists; 20 ppm monatin, Water + 120 mg/100 mL calcium (Gluconal CAL), pH 7.6",6.4 %; w/v
same,SEV,"panelists; 20 ppm monatin, Water + 3% whey protein isolate, pH 7.8",5.2 %; w/v
same,SEV,"panelists; 20 ppm monatin, Water + 4.5% lactose, pH 7.8",4.0 %; w/v
same,SEV,"panelists; 20 ppm monatin, Water + calcium + lactose, pH 7.8",5.6 %; w/v
same,SEV,"panelists; 20 ppm monatin, Water + lactic acid, pH 4.6",6.0 %; w/v
same,SEV,"panelists; 20 ppm monatin, Water, pH 7.8",5.1 %; w/v
same,sweetness enhancement of water/calcium solution over monatin in water alone,panelists; 20 ppm monatin,25%
same,decrease in sweetness of water solution having 4.5% lactose compared to water solution only containing monatin,panelists; 40 ppm monatin,18%
same,sweetness enhancement of 0% fat milk at pH 4.6 over 0% fat milk at pH 6.4,panelists; 40 ppm monatin,16%
same,SEV,"panelists; 40 ppm monatin, Milk (0% fat), pH 6.4",8.5 %; w/v
same,SEV,"panelists; 40 ppm monatin, Milk (0% fat; yogurt + milk), pH 4.6",9.9 %; w/v
same,SEV,"panelists; 40 ppm monatin, Milk (2% fat), pH 6.4",8.7 %; w/v
same,SEV,"panelists; 40 ppm monatin, Milk (3.6% fat), pH 6.4",8.3 %; w/v
same,SEV,"panelists; 40 ppm monatin, Water + 120 mg/100 mL calcium (Gluconal CAL), pH 7.6",9.0 %; w/v
same,SEV,"panelists; 40 ppm monatin, Water + 3% whey protein isolate, pH 7.8",7.6 %; w/v
same,SEV,"panelists; 40 ppm monatin, Water + 4.5% lactose, pH 7.8",6.3 %; w/v
same,SEV,"panelists; 40 ppm monatin, Water + calcium + lactose, pH 7.8",8.0 %; w/v
same,SEV,"panelists; 40 ppm monatin, Water + lactic acid, pH 4.6",7.9 %; w/v
same,SEV,"panelists; 40 ppm monatin, Water, pH 7.8",7.7 %; w/v
same,sweetness enhancement of water/calcium solution over monatin in water alone,panelists; 40 ppm monatin,17%
same,impact of milk fat on relative sweetness values of monatin solutions prepared from milk,"panelists; milk 0%, 2%, 3.6% fat",essentially unaffected
same,monatin concentration that most closely matched the sweetness of ice cream sweetened to 13% sucrose,[2],about 45 ppm
same,times as sweet as sucrose,[2],about 2800 times
same,times sweeter than sucrose by weight,[3],2000-2400 times

# Source: US20120009320A1, “COMPOSITIONS COMPRISING MONATIN AND CALCIUM” (priority 2009, published 2012)
